Consider 6 molecules from patent US5972678A, “Animal 2-5A dependent RNases” (Cleveland Clinic Foundation, priority 1995, dated 1999).

Substitutions are numbered along the chain they refer to. Bounds are passed on as bounds.

Common to all, as to format: binding
Assay [1] concerns murine 2-5A-dependent RNase (truncated recombinant clone ZB1 and murine L cell enzyme). The assay is described as follows: UV covalent crosslinking of 32P-2-5A probe with unlabeled oligonucleotide competitors, murine enzyme. The note with it: for concentration that prevents 2-5A probe binding: 32P-2-5A probe 2.4 nM, both recombinant (ZB1) and naturally occurring murine protein; for competition with 2-5A probe binding: competitor 100 nM, recombinant 74 kDa protein (clone ZB1) from wheat germ extract, similar profile with murine L929 cell enzyme. How it is done: FIG. 2A is a specific affinity of truncated murine 2-5A-dependent RNase for 2-5A. UV covalent crosslinking of the ^32 P-2-5A probe (lanes 1-7) to protein is performed after translation reactions in wheat germ extract (5 μl) with murine 2-5A-dependent RNase mRNA (from clone ZB1) (lanes 1-3) or without added RNA (lane 4) or in extract of interferon treated mouse L cells (100 μg of protein) (lanes 5-7). Reactions are without added competitor (lanes 1, 4, and 5) or in the presence of either trimer core. […] Lanes 8 and 9 are produced by incubating the wheat germ extract with ^35 S-methionine in the absence or presence of 2-5A-dependent RNase mRNA, respectively.
Autoradiograms of the dried SDS/10% polyacrylamide gels are shown. Concentrations of the oligonucleotide competitors are indicated. I is inosine.
To obtain recombinant protein for characterization, the cDNA is transcribed and translated in cell-free systems. See Example. 2-5A binding activity is then determined by covalently crosslinking the 2-5A probe to the protein with uv light, for example, Nolan-Sorden, N. L. et al., Anal. Biochem., 184: 298-304 (1990). […] See FIG. 2A, lanes 2 and 3, respectively. There is no detectable 2-5A binding proteins in the wheat germ extract as shown in the incubation without added RNA, FIG. 2A, lane 4. For comparison, a similar profile of 2-5A binding activity is obtained for the 80 kDa 2-5A-dependentRNase from murine L929 cells, incubated without added oligonucleotide or with (A2'p)2 A or p3 (A2'p)2 A as competitors. In a further comparison, covalent linkage of the 2-5A probe to the about 74 kDa protein and to murine L929 cell 2-5A-dependent RNase followed by partial digestion with chymotrypsin produces an identical pattern of six labeled peptides. Similarly, partial digestion of the two labeled proteins with S. aureus V8 protease also produces identical patterns of labeled cleavage products.
The 2-5A binding functions of the recombinant and naturally occurring forms of murine 2-5A-dependent RNase are characterized by covalent crosslinking to the 2-5A probe in the presence of unlabeled 2-5A or 2-5A analogues as competitors. […] In comparison, a 500-fold higher concentration of (A2'p)2 A (10 μM) is required to prevent probe binding to both proteins. See lane 13. The dimer species, p3 A2'pA, is unable to prevent the 2-5A probe from binding to the proteins even at a concentration of 10 μM (lane 18). However, the inosine analogue, p3 I2'pA2'pA, Imai, J. et al., J. Biol. Chem., 260: 1390-1393 (1985), is able to prevent probe binding to both proteins but only when added at a concentration of about 1.0 μM (lane 22).
The synthesis of the 2-5A probe, p(A2'p)2 (br^8 A2'p)2 A[32P]Cp, and its crosslinking to 2-5A-dependent RNase is performed exactly as described. See Nolan-Sorden, N. L. et al., Anal. Biochem., 184: 298-304 (1990). Briefly, the 2-5A probe, about 0.7 to 2.5 nM at […], is incubated for about one hour on ice with cell extract prepared as described, Silverman, R. H. and Krause, D., Lymphokines and Interferons: A Practical Approach, I.R.L. Press, Oxford. England, pp. 149-193 (1987), in the absence or presence of unlabeled oligonucleotide competitors. Covalent crosslinking is done under a uv lamp (308 nm) for one hour on ice and the proteins are separated on SDS/10% polyacrylamide gels. Filter assays for 2-5A binding activity using the 2-5A probe for about one hour on ice, as described in Knight, M. et al., Nature, 288: 189-192 (1980).

The subject of assay [2] is human 2-5A-dependent RNase (recombinant and HeLa cell enzyme). The assay is described as follows: UV covalent crosslinking of 2-5A probe with unlabeled competitors, human enzyme. As to conditions: competitor 100 nM; recombinant human enzyme from wheat germ extract; same pattern with interferon-treated HeLa cell extract. As to the method:
FIG. 5A is specific affinity of recombinant human 2-5A-dependent RNase for 2-5A. Crosslinking of the 2-5A probe (lanes 1-7) to protein is performed after translation reactions in wheat germ extract (5 μl) with human 2-5A-dependent RNase mRNA (lanes 1-3) or without added RNA (lane 4) or in extract of human interferon a treated (1000 units per ml for 16 h) human HeLa cells (350 μg of protein) (lanes 5-7). […] Incubations with ^35 S-methionine are shown in lanes 8 to 12. Lane 8 is with wheat germ extract and human 2-5A-dependent RNase mRNA. Reticulocyte lysate preadsorbed to 2-5A-cellulose is incubated with human 2-5A-dependent RNase MRNA in the absence (lane 9) or presence (lane 10) of cycloheximide, or in the absence of added mRNA (lane 11). […] The positions and relative molecular masses (in kDa) of the marker proteins are indicated.
The 2-5A binding properties of the recombinant and naturally occurring forms of human 2-5A-dependent RNase are compared by uv covalent crosslinking to the 2-5A probe. […] Radiolabeling of the cloned human 2-5A-dependent RNase with the 2-5A probe is not prevented by (A2'p)2 A. See FIG. 5A, lanes 1 and 2. […] See lane 3. The same pattern of 2-5A binding activity is obtained with 2-5A-dependent RNase in an extract of interferon-treated human HeLa cells. […]

Assay [3] concerns 2-5A probe, Br-2-5A-[32P]pCp.

For the molecule p3 A2'pA, the “concentration that prevents 2-5A probe binding” value in assay [1] was above 10 µM.

Turning to p3 I2'pA2'pA, the “concentration that prevents 2-5A probe binding” value in assay [1] is on record as “about 1.0 μM”.

Take (A2'p)2 A: in assay [1], the “concentration that prevents 2-5A probe binding” value is 10 µM and the “competition with 2-5A probe binding” value is “fails to interfere with binding of the protein to the 2-5A probe”. For the same molecule, the “competition with 2-5A probe binding” value in assay [2] is on record as “not prevented”.

For p3 (A2'p)2 A, in assay [1], the “concentration that prevents 2-5A probe binding” value is listed as “about 20 nM” and the “competition with 2-5A probe binding” value is listed as “completely prevents probe binding”. In addition, the “competition with 2-5A probe binding” value in assay [2] is “effectively competes with the 2-5A probe”.

B1: Clone ZB1: truncated recombinant murine 2-5A-dependent RNase, amino acids 1-656 in Table II (protein, UniProt Q05921 1-656, looked up, fragment)
chain: METPDYNTPQGGTPSAGSQRTVVEDDSSLIKAVQKGDVVRVQQLLEKGADANACEDTWGWTPLHNAVQAGRVDIVNLLLSHGADPHRRKKNGATPFIIAGIQGDVKLLEILLSCGADVNECDENGFTAFMEAAERGNAEALRFLFAKGANVNLRRQTTKDKRRLKQGGATALMSAAEKGHLEVLRILLNDMKAEVDARDNMGRNALIRTLLNWDCENVEEITSILIQHGADVNVRGERGKTPLIAAVERKHTGLVQMLLSREGINIDARDNEGKTALLIAVDKQLKEIVQLLLEKGADKCDDLVWIARRNHDYHLVKLLLPYVANPDTDPPAGDWSPHSSRWGTALKSLHSMTRPMIGKLKIFIHDDYKIAGTSEGAVYLGIYDNREVAVKVFRENSPRGCKEVSCLRDCGDHSNLVAFYGREDDKGCLYVCVSLCEWTLEEFLRLPREEPVENGEDKFAHSILLSIFEGVQKLHLHGYSHQDLQPQNILIDSKKAVRLADFDQSIRWMGESQMVRRDLEDLGRLVLYVVMKGEIPFETLKTQNDEVLLTMSPDEETKDLIHCLFSPGENVKNCLVDLLGHPFFWTWENRYRTLRNVGNESDIKVRKCKSDLLRLLQHQTLEPPRSFDQWTSKIDKNVMDEMNHFYEKRKKNPYQD
For B1, in assay [3] (uv crosslinking to 2-5A probe with competitors, protein missing about 84 carboxy-terminal amino acids), the “2-5A binding activity compared with naturally occurring enzyme (in words)” value is “indistinguishable from that of naturally occurring 2-5A-dependentRNase”.

B2: Clone ZB1 (Lys^240,274 →Asn): double mutant of clone ZB1, lysines 240 and 274 replaced with asparagine (protein, UniProt Q05921 1-656, looked up, variant K240N K274N)
chain: B1 chain with K240N, K274N
As for B2, the “2-5A binding activity, % of the activity of clone ZB1” value in assay [3] (uv crosslinking, phosphorimager analysis of dried gel, wheat germ extract translation products) turned out to be 12.2%.
